Source: US8816076B2, “Aryl urea derivatives as N-formyl peptide receptor like-1 (FPRL-1) receptor modulators” (Allergan, Inc., priority 2011, dated 2014)
Values joined by “and” are separate entries in the source; they are usually repeats but may differ in a detail not shown here. Equal values may be shown once.

Target: T1, FPRL-1 (Homo sapiens, UniProt P25090)
T1 construct: expressed in transfected cells
T1 sequence (P25090 1-351): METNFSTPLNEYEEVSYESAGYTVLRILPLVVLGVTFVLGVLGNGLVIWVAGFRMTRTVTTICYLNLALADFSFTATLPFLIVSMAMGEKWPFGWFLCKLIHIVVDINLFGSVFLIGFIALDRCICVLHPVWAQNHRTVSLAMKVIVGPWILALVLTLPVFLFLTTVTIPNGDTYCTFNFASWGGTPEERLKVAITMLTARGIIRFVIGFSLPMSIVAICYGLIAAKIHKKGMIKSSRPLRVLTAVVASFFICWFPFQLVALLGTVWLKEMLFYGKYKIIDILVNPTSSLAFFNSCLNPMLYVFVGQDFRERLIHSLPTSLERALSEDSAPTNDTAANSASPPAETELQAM
Experiment: Compound-induced calcium activity on FLIPR Tetra in CHO-Ga16 cells stably expressing FPRL1
Type: cell-based
Conditions: for EC50: compounds tested at 0.61 to 10,000 nM; for FPRL-1 Ga16-CHO (Rel. eff.): relative efficacy
Protocol: CHO-Ga16 cells stably expressing FPRL1 were cultured in (F12, 10% FBS, 1% PSA, 400 μg/ml geneticin and 50 μg/ml hygromycin) and HEK-Gqi5 cells stable expressing FPR1 were cultured in (DMEM high glucose, 10% FBS, 1% PSA, 400 μg/ml geneticin and 50 μg/ml hygromycin). In general, the day before the experiment, 18,000 cells/well were placed in a 384-well clear bottom poly-d-lysine coated plate. The following day the screening compound-induced calcium activity was assayed on the FLIPR^Tetra. The drug plates were prepared in 384-well microplates using the EP3 and the MultiPROBE robotic liquid handling systems. Compounds were tested at concentrations ranging from 0.61 to 10,000 nM. Results are expressed as EC50 (nM) and efficacy values.

EC50 | FPRL-1 Ga16-CHO (Rel. eff.) | SMILES
563 nM | (1.0) | O=C(Nc1c(F)cc(Br)cc1F)N[C@@H](Cc1ccccc1)C(=O)O [Compound 3, (2S)-2-({[(4-Bromo-2,6-difluorophenyl)amino]carbonyl}amino)-3-phenylpropanoic acid]
241 nM | (0.78) | CC[C@H](C)[C@H](NC(=O)Nc1ccc(Br)cc1F)C(N)=O [Compound 29, (2S,3S)-2-({[(4-Bromo-2-fluorophenyl)amino]carbonyl}amino)-3-methylpentanamide]
5100 nM | (0.53) | O=C(Nc1ccc(Br)c2ccccc12)N[C@@H](Cc1ccccc1)C(=O)O [Compound 10, (2S)-2-({[(4-Bromo-1-naphthyl)amino]carbonyl}amino)-3-phenylpropanoic acid]
88 nM | (1.02) | O=C(Nc1ccc(Br)cc1F)N[C@H](C(=O)O)c1ccccc1 [Compound 8, (2S)-({[(4-Bromo-2-fluorophenyl)amino]carbonyl}amino)(phenyl)acetic acid]
77 nM | (0.87) | CSc1ccc(NC(=O)N[C@@H](Cc2ccccc2)C(=O)O)cc1 [Compound 15, (2S)-2-[({[4-(Methylthio)phenyl]amino}carbonyl)amino]-3-phenylpropanoic acid]
51 nM | (0.88) | O=C(Nc1ccc(Br)cc1F)N[C@@H](Cc1ccccc1)C(=O)O [Compound 1, (2S)-2-({[(4-Bromo-2-fluorophenyl)amino]carbonyl}amino)-3-phenylpropanoic acid]
109 nM | (0.97) | CCC[C@H](NC(=O)Nc1ccc(Br)cc1)C(N)=O [Compound 31, (2S)-2-{[(4-Bromophenyl)carbamoyl]amino} pentanamide]
47 nM and 29 nM | – | NC(=O)[C@H](Cc1ccccc1)NC(=O)Nc1ccc(Br)cc1 [Compound 26, (2S)-2-({[(4-Bromophenyl)amino]carbonyl}amino)-3-phenylpropanamide]

Second part, the molecule before the results:

SMILES | EC50 | FPRL-1 Ga16-CHO (Rel. eff.)
CSc1ccc(NC(=O)NC(Cc2ccccc2)C(=O)O)cc1 (stereo not shown) [Compound 23, 2-[({[4-(Methylthio)phenyl]amino}carbonyl)amino]-3-phenylpropanoic acid] | 169 nM | (0.76)
O=C(Nc1ccc(Br)cc1F)NC(Cc1ccccn1)C(=O)O (stereo not shown) [Compound 17, 2-({[(4-Bromo-2-fluorophenyl)amino]carbonyl}amino)-3-pyridin-2-ylpropanoic acid] | 713 nM | (1.0)
CC(C)C[C@H](NC(=O)Nc1ccc(Br)cc1F)C(N)=O [Compound 27, (2S)-2-({[(4-Bromo-2-fluorophenyl)amino]carbonyl}amino)-4-methylpentanamide] | 120 nM | (1.13)
CCC(CC)(NC(=O)Nc1ccc(Br)cc1)C(=O)O [Compound 25, 2-({[(4-Bromophenyl)amino]carbonyl}amino)-2-ethylbutanoic acid] | 24 nM | (1.03)
CC(C)C[C@H](NC(=O)Nc1ccc(SC(F)(F)F)cc1)C(=O)O [Compound 11, (2S)-4-Methyl-2-{[({4-[(trifluoromethyl)thio]phenyl}amino)carbonyl]amino}pentanoic acid] | 2380 nM | (0.64)
CC(C)C[C@H](NC(=O)Nc1ccc(Br)cc1)C(N)=O [Compound 28, (2S)-2-({[(4-Bromophenyl)amino]carbonyl}amino)-4-methylpentanamide] | 48 nM | (0.91)
Cc1cc(Br)cc(C)c1NC(=O)N[C@@H](Cc1ccccc1)C(=O)O [Compound 4, (2S)-2-({[(4-Bromo-2,6-dimethylphenyl)amino]carbonyl}amino)-3-phenylpropanoic acid] | 2400 nM | (0.82)
O=C(Nc1ccc(Br)cc1)NC(Cc1ccccn1)C(=O)O (stereo not shown) [Compound 16, 2-({[(4-Bromophenyl)amino]carbonyl}amino)-3-pyridin-2-ylpropanoic acid] | 488 nM | (1.0)
O=C(Nc1ccc(Cl)cc1Cl)N[C@@H](Cc1ccccc1)C(=O)O [Compound 5, (2S)-2-({[(2,4-Dichlorophenyl)amino]carbonyl}amino)-3-phenylpropanoic acid] | 1150 nM | (1.0)
CC(C)CC(C)(NC(=O)Nc1ccc(Br)cc1)C(=O)O (stereo not shown) [Compound 24, 2-({[(4-Bromophenyl)amino]carbonyl}amino)-2,4-dimethylpentanoic acid] | 16 nM | (0.95)
O=C(Nc1ccc(Br)cc1F)NC(Cc1c[nH]c2ccccc12)C(=O)O (stereo not shown) [Compound 19, 2-({[(4-Bromo-2-fluorophenyl)amino]carbonyl}amino)-3-(1H-indol-3-yl)propanoic acid] | 120 nM | (1.04)
CSCC[C@H](NC(=O)Nc1ccc(Br)cc1)C(=O)O [Compound 14, (2S)-2-({[(4-Bromophenyl)amino]carbonyl}amino)-4-(methylthio)butanoic acid] | 75 nM | (1.00)
CCC[C@H](NC(=O)Nc1ccc(Br)cc1F)C(N)=O [Compound 30, (2S)-2-({[(4-Bromo-2-fluorophenyl)amino]carbonyl}amino)pentanamide] | 56 nM | (1.07)
CSCCC(NC(=O)Nc1ccc(Br)cc1)C(=O)O (stereo not shown) [Compound 21, 2-({[(4-Bromophenyl)amino]carbonyl}amino)-4-(methylthio)butanoic acid] | 93 nM | (0.94)
CC(C)C[C@H](NC(=O)Nc1ccc(C(F)(F)F)cc1)C(=O)O [Compound 12, (2S)-4-Methyl-2-[({[4-(trifluoromethyl)phenyl]amino}carbonyl)amino]pentanoic acid] | 29 nM | (0.94)
O=C(Nc1ncc2cc(Br)ccc2n1)NC(Cc1ccccc1)C(=O)O (stereo not shown) [Compound 20, 2-({[(6-Bromoquinazolin-2-yl)amino]carbonyl}amino)-3-phenylpropanoic acid] | – | (0.25)
Cc1cc(Br)ccc1NC(=O)N[C@@H](Cc1ccccc1)C(=O)O [Compound 2, (2S)-2-({[(4-Bromo-2-methylphenyl)amino]carbonyl}amino)-3-phenylpropanoic acid] | 1550 nM | (1.0)
O=C(Nc1ccc(C(F)(F)F)cc1)NC(Cc1ccccc1)C(=O)O (stereo not shown) [Compound 22, 3-Phenyl-2-({[4-(trifluoromethyl)phenyl]carbamoyl}amino)propanoic acid] | 91 nM | (1.05)
CC[C@H](C)[C@H](NC(=O)Nc1ccc(Br)cc1F)C(=O)O [Compound 7, (2S,3S)-2-({[(4-Bromo-2-fluorophenyl)amino]carbonyl}amino)-3-methylpentanoic acid] | 8 nM | (0.89)
